{
  "source": "paper PMC4208844",
  "about": "(PLoS ONE, 2014)",
  "key": {"[1]": {"assay": "MTT cytotoxicity test in LS174T cells", "conditions": "human", "protocol": "(§1) A transiently transfected LS174T human colon adenocarcinoma cells were used for assessment of PXR transcriptional activity. […] The reporter plasmid was transiently transfected to LS174T cells by lipofection (FuGENE 6). Cells were incubated for 24 h with tested compounds and/or vehicle (DMSO; 0.1% v/v), in the presence or absence of RIF (10 µM; LS174T cells). After the treatments, cells were lysed and luciferase activity was measured. In parallel, cell viability was determined by conventional MTT test [MTT = 3-(4,5-dimethylthiazol-2-yl)-2,5-diphenyltetrazolium bromide]; briefly: After the treatment, culture medium was replaced with fresh one and 100 µL of MTT reagent (5 mg/mL PBS) was added. Three hours later, the medium was removed, and cells were washed with PBS and lysed for 5 min with 1 mL of DMSO containing 1% ammonia. The lysate was diluted 20 times with DMSO (+1% ammonia) and absorbance at 540 nm was measured against blank (DMSO+1% ammonia) (TECAN, Schoeller Instruments LLC). Results were normalized to the control value (i.e. 100×A sample/A control) and expressed as percentage of control."}, "CYP3A4 protein": {"system": "CYP3A4 protein", "assay": "CYP3A4 protein expression (Western blot) in HepG2 cells", "type": "cell-based, human", "conditions": "48 h", "protocol": "Human colon adenocarcinoma cells LS174T (ECACC No. 87060401) and human hepatocellular carcinoma cells HepG2 (ECACC No. 85011430) were purchased from ECACC and were cultured in as recommended by manufacturer. Primary human hepatocytes used in this study were obtained from two sources: (i) from multiorgan donors HH52 and […] (male; 71 years); the use of liver cells of donors HH52 and HH54 was approved by “Ethical committee at the Faculty Hospital Olomouc”, and it was in accordance with Transplantation law #285/2002 Sb; “Ethical committee at the Faculty Hospital Olomouc” waived the authors from obtaining consent from the next of kin, regarding human hepatocytes obtained from liver donors HH52 and HH54. (ii) long-term human hepatocytes in monolayer Batch HEP220770 (person) were purchased from Biopredic International (Biopredic International, Rennes, France). Cells were cultured in serum-free medium. Cultures were maintained at 37°C and 5% CO2 in a humidified incubator.\nTotal protein extracts were prepared as described elsewhere. SDS-PAGE gels (10%) were run according to the general procedure followed by the protein transfer onto PVDF membrane. The membrane was saturated with 5% non-fat dried milk. […] The density of bands was measured by densitometry."}, "CYP3A4/5": {"system": "CYP3A4/5", "assay": "CYP3A4/5 catalytic activity, testosterone 6β-hydroxylation in human liver microsomes", "conditions": "pH 7.4, probe testosterone (6β-hydroxylation)"}, "LS174T cells": {"system": "LS174T cells", "assay": "MTT cytotoxicity test in LS174T cells", "conditions": "read-out: MTT test IC50 (cytotoxicity); LS174T cells; 24 h incubation", "protocol": "as §1"}, "pregnane X receptor PXR": {"target": "T1, pregnane X receptor PXR (Homo sapiens, UniProt O75469)", "T1 sequence (O75469 1-434)": "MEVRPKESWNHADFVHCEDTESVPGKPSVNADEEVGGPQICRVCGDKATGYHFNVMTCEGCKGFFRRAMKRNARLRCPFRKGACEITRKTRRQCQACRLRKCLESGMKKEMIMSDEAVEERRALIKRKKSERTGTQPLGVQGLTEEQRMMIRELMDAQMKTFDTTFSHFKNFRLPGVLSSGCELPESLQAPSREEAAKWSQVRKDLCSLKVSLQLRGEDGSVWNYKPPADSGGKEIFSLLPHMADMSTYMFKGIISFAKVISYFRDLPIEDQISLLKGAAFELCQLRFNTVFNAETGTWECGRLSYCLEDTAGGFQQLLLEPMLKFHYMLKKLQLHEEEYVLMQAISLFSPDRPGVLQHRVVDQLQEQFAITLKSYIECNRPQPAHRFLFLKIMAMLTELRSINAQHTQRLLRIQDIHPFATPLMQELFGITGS", "conditions": "read-out: PXR antagonist IC50; transfected LS174T cells; 24 h; in the presence of RIF (10 µM)"}},
  "data": [
    {"molecule": "CC(=O)N1CCN(c2ccc(OCC3COC(Cn4ccnc4)(c4ccc(Cl)cc4Cl)O3)cc2)CC1", "note": "(racemic) [(rac)-KET, ketoconazole]", "values": [
      {"measurement": "IC50 at 24 h", "setting": "[1]", "result": 50.3, "unit": "µM"},
      {"measurement": "CYP3A4 protein induction (in words)", "setting": "CYP3A4 protein", "result": "did not find convincing induction"},
      {"measurement": "activity at 10 µM", "setting": "CYP3A4/5", "result": 3, "unit": "%"}
    ]},
    {"molecule": "CC(=O)N1CCN(c2ccc(OC[C@H]3CO[C@](Cn4ccnc4)(c4ccc(Cl)cc4Cl)O3)cc2)CC1", "note": "[(+)-KET, (2R,4S)-(+)-KET]", "values": [
      {"measurement": "IC50", "setting": "LS174T cells", "result": 52.7, "unit": "µM"},
      {"measurement": "IC50", "setting": "pregnane X receptor PXR", "result": 41.2, "unit": "µM"}
    ]},
    {"molecule": "CC(=O)N1CCN(c2ccc(OC[C@@H]3CO[C@@](Cn4ccnc4)(c4ccc(Cl)cc4Cl)O3)cc2)CC1", "note": "[(−)-KET, (2S,4R)-(−)-KET]", "values": [
      {"measurement": "IC50 at 24 h", "setting": "[1]", "result": 57.5, "unit": "µM"}
    ]}
  ]
}
